Test results from patent US8999935B2, “Treatment of osteoporosis in peri- and post-menopausal women with hepcidin” (New York University, priority 2009, dated 2015).
Each block holds one compound with its values, some of them ahead of it.

Columns and labels:
CYP19A1 = CYP19A1 mRNA induction in MCF-12A cells; format: cell-based, human; conditions: ferritin at as little as 10 ng/ml
Source text: (§1) It was also investigated whether increased iron as a result of menopause affects estrogen metabolisms. It is known that 95% of serum E2 in premenopausal women is derived from ovarian secretion and subsequently distributed through the bloodstream in an endocrine fashion. Almost all of the circulating E2 in postmenopausal women is from extragonadal conversion of C19 steroid precursors, principally weak adrenal androgens (FIG. 26). The conversion occurs locally in tissues such as adipose and bone marrow and E2 acts in a paracrine fashion. […] The first step in the metabolism of estrogens is the hydroxylation catalyzed by cytochrome P450 enzymes such as CYP1A1 and CYP1B1, leading to the formation of 2-hydroxyl-E2 (2-OH-E2) and 4-OH-E2, respectively (Tsuchiya et al., “Cytochrome P450-mediated Metabolism of Estrogens and Its Regulation In Humans,” Cancer Leu 227, 115-24 (2005), which is hereby incorporated by reference in its entirety).

MCF-7 cells = experiment: VEGF formation in MCF-7 cell cultures; format: cell-based; conditions: 24-hr treatment
Source text: Due to the deficit of appropriate animal models that recapitulate estrogen and iron conditions in vivo, and the inherent difficulty of eliminating confounding variables with study in human subjects, applicants developed two cell culture models to test whether increase in body iron contributes to menopausal symptoms and diseases (FIG. 4). The concentration of 17β-estradiol (E2) were set at levels equivalent to breast tissue levels under pre-menopausal conditions (Parl F. F., “Estrogens, Estrogen Receptor and Breast Cancer,” Oxford: IOS Press, (2000), which is hereby incorporated by reference in its entirety). Ferritin levels were equal to 10% serum, given that the physiological upper limit of serum ferritin is 200 ng/ml. Twenty ng/ml of ferritin was used in the culture media. Transferrin was added in its wholly unsaturated form (apo-transferrin), or its fully 100% iron saturated (holo-transferrin), at 5 μg/ml, to the pre- and post-menopausal conditions, respectively. Serum-free alpha minimum essential medium (α-MEM) was used as the base medium for breast cancer MCF-7 cells, osteoblast progenitor C2C12 cells, and osteoclast progenitor Raw 264.7 cells. MCF-7 was supplemented with selenium (5 ng/ml) and insulin (5 μg/ml). C2C12 and Raw 264.7 cells were supplemented with bone morphorgenetic protein-2 (BMP-2) and receptor activator of nuclear factor kappa B ligand (RANKL) to stimulate their differentiation and maturation to ostoeblasts and osteoclasts, respectively. Epilife® basal medium was used for the culture of primary normal human epidermal keratinocytes (NHEK) cells.
E2, transferrin, and ferritin were analyzed separately in MCF-7 cell cultures to determine their relative contribution to alterations in VEGF levels.

CYP1A1 = CYP1A1 mRNA induction in MCF-12A cells; format: cell-based, human; conditions: ferritin at as little as 10 ng/ml
Source text: as §1

CYP1B1 = CYP1B1 mRNA induction in MCF-12A cells; format: cell-based, human; conditions: ferritin at as little as 10 ng/ml
Source text: as §1

[1] = tested on: mouse osteoblast C2C12 cells; experiment: Alkaline phosphatase (osteoblast differentiation) in C2C12 cells; format: cell-based
Description: FIGS. 18A-F show differences in alkaline phosphates (ALP) activities in mouse osteoblast C2C12 cells grown in medium only (FIG. 18A), with bone morphorgenetic protein-2 (BMP-2) (FIG. 18B), under the pre-menopausal (FIG. 18C), post-menopausal (FIG. 18D), with ferritin (FIG. 18E), and with deferoxamine (DFO) (FIG. 18F). DFO, an iron chelator, (10 μM) or ferritin alone (20 ng/mL) was used in the presence of BMP-2 at 50 ng/ml.
Due to the deficit of appropriate animal models that recapitulate estrogen and iron conditions in vivo, and the inherent difficulty of eliminating confounding variables with study in human subjects, applicants developed two cell culture models to test whether increase in body iron contributes to menopausal symptoms and diseases (FIG. 4). The concentration of 17β-estradiol (E2) were set at levels equivalent to breast tissue levels under pre-menopausal conditions (Parl F. F., “Estrogens, Estrogen Receptor and Breast Cancer,” Oxford: IOS Press, (2000), which is hereby incorporated by reference in its entirety). Ferritin levels were equal to 10% serum, given that the physiological upper limit of serum ferritin is 200 ng/ml. […]
To investigate whether increased iron levels affect the balance between bone formation and bone resorption, mouse osteoblasts C2C12 and osteoclasts Raw 264.7 cells were cultured in the two distinct media. […] Cell proliferation was then measured.

[2] = mice, single 50 μg intraperitoneal injection, for 3 days; cited from earlier work
C2C12 cells = experiment: C2C12 cell proliferation; format: cell-based, mouse; conditions: 3 and 5 days
Description: To investigate whether increased iron levels affect the balance between bone formation and bone resorption, mouse osteoblasts C2C12 and osteoclasts Raw 264.7 cells were cultured in the two distinct media. […] In other experiments, the iron chelator deferoxamine (DFO), promoted alkaline phosphatase production, whereas ferritin diminished it. […] To further search how increased iron affect osteoblasts, C2C12 cells were grown in the presence of E2 or iron over a period of 3 and 5 days. Cell proliferation was then measured.

[3] = Effects of hepcidin on mice: serum iron and transferrin saturation after 8 weeks of i.p. treatment; format: in vivo; conditions: 1.5 mg/kg i.p. twice a week for 8 weeks, versus control mice or mice treated with DFO
Description: Human body has many ways to absorb, transfer, and store iron but has no effective ways to excrete it (Andrews N. C., “Disorders of Iron Metabolism,” N Engl J Med 341:1986-95 (1999), which is hereby incorporated by reference in its entirety). Menstruation, which can get rid of iron in young premenopausal women, is not optional in older postmenopausal women. Therefore, hepcidin and deferoxamine (DFO), a FDA-approved iron chelator, were tested to see whether hepcidin or DFO can inhibit iron absorption and decrease body iron levels. After overnight fasting, mice were injected intra-peritoneally (i.p.), twice a week, with hepcidin at 1.5 mg/kg, DFO at 400 mg/kg, or saline (control) with 10 mice per group. After 8 weeks consecutive treatment, mice were sacrificed and blood were collected by heart puncture. Serum samples were used for measurements of serum iron and transferrin saturation.

CYP1A1 mRNA levels (CYP1A1): significantly increased
CYP1B1 mRNA levels (CYP1B1): significantly increased
Compound: ferritin
CYP19A1 mRNA levels (CYP19A1): not
VEGF formation (MCF-7 cells; various concentrations): significantly decreases
alkaline phosphatase production ([1]; C2C12 cells with BMP-2 at 50 ng/ml, DFO 10 μM, ferritin 20 ng/mL): diminished

Compound: Asp-Thr-His-Phe-Pro-Ile-Cys-Ile-Phe-Cys-Cys-Gly-Cys-Cys-His-Arg-Ser-Lys-Cys-Gly-Met-Cys-Cys-Lys-Thr (DTHFPICIFCCGCCHRSKCGMCCKT; listed as Homo sapiens) [human hepcidin]
fall in serum iron [2]: 70%

Compound: apo-transferrin: transferrin in its wholly unsaturated form, without iron in it
VEGF formation (MCF-7 cells; various concentrations): no effect

Compound: C[C@]12CC[C@@H]3c4ccc(O)cc4CC[C@H]3[C@@H]1CC[C@@H]2O [E2, 17β-estradiol]
cell proliferation (C2C12 cells): did not increase
VEGF formation (MCF-7 cells; various concentrations): some increase
osteoblast differentiation, as measured by alkaline phosphates activity ([1]; C2C12 cells): slightly stimulated

Compound: transferrin: iron transport protein with two binding sites for iron, tested at different iron saturation
VEGF formation (MCF-7 cells; transferrin 5 μg/ml at various iron saturation levels): no effect

Compound: hepcidin: peptide hormone, principal regulator of iron homeostasis; binds ferroportin (DTHFPICIFCCGCCHRSKCGMCCKT; listed as Homo sapiens)
levels of serum iron [3]: significantly lower
transferrin saturation [3]: significantly lower
